Measured values reported in the Kinase Knowledgebase extract (Sharma et al. 2016).

Target: EGFR (UniProt P00533)
Sequence (P00533 whole entry, looked up): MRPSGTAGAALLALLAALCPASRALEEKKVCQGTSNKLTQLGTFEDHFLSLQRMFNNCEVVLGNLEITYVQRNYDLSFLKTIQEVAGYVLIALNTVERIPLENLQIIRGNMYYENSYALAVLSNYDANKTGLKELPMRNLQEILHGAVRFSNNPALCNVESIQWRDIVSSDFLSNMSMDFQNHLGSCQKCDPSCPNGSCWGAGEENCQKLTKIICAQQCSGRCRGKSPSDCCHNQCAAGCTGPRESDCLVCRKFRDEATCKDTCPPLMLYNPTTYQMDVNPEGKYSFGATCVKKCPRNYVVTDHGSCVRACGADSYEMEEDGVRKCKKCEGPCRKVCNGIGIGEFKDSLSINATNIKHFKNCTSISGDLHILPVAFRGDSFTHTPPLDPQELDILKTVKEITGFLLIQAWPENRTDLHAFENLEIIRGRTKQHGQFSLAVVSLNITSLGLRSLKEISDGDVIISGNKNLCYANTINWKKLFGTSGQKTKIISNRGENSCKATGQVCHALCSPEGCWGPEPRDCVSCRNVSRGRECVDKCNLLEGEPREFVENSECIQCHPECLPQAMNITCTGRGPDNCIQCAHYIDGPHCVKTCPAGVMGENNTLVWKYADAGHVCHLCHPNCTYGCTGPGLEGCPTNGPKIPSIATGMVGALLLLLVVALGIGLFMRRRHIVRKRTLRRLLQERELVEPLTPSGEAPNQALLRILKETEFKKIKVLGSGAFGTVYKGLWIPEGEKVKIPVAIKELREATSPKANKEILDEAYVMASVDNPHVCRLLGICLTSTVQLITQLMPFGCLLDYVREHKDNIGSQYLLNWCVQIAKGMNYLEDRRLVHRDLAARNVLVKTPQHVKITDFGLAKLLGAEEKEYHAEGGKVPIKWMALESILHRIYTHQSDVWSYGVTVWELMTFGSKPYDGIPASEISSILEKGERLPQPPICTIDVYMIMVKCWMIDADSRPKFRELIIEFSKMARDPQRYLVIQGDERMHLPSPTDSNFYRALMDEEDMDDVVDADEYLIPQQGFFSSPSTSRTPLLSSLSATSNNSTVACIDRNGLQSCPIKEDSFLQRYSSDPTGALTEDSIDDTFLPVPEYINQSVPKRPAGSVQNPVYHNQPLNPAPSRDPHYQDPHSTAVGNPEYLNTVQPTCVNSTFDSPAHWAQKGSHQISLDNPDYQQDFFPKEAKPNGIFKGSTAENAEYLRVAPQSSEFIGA

SMILES	IC50
COc1cc2ncnc(N[C@H](C)c3cccc4ccccc34)c2cc1OC	139 nM
CC[C@@H](Nc1ncnc2cc(OC)c(OC)cc12)c1ccccc1	234 nM
COc1cc2ncnc(NCc3ccccc3)c2cc1OC	10 nM
COc1ccc2c(N[C@H](C)c3ccccc3)ncnc2c1	29 nM
COc1cc2ncnc(N[C@@H](C)c3ccccc3)c2cc1OC	3760 nM
COc1ccc2c(Nc3ccccc3)ncnc2c1	120 nM
COc1cc2ncnc(N[C@H](C)c3ccccc3)c2cc1OC	1.6 nM
COc1cc2ncnc(NC3CCc4ccccc43)c2cc1OC (stereo not given)	1000 nM
COc1cc2ncnc(NCc3cccc4ccccc34)c2cc1OC	148 nM
c1ccc(CCNc2ncnc3ccccc23)cc1	4100 nM
COc1ccc2c(NCc3ccccc3)ncnc2c1	58 nM
COc1ccc2c(N[C@@H](C)c3ccccc3)ncnc2c1	4000 nM
c1ccc(CNc2ncnc3ccccc23)cc1	320 nM
C[C@H](Nc1ncnc2ccccc12)c1ccccc1	> 10000 nM
C[C@@H](Nc1ncnc2ccccc12)c1ccccc1	86 nM
